The target in experiment [1] is HPK1 kinase (aal-346. Life Technologies) (Homo sapiens (Human), UniProt Q92918). In words: HPK Kinase Activity Assay at 1 mM ATP (TR-FRET). It counts as biochemical. Conditions: HPK1 kinase 40 nM, 0.5 μM STK1 substrate, read-out: Enzymatic activity IC50.
The subject of experiment [2] is pSLP76(S376) level in Jurkat cell line. In words: Cellular pSLP76(S376) HTRF Assay. Format: cell-based. The conditions noted are these: Homo sapiens, Jurkat, Jurkat cells, 2 h compound treatment, stimulated with 0.05 μg/mL anti-human CD3 (OKT3) for 30 min. (In general: TR-FRET usually uses a lanthanide donor and a delayed reading to cut background.)

HPK1 kinase (aal-346. Life Technologies), sequence (Q92918 1-346): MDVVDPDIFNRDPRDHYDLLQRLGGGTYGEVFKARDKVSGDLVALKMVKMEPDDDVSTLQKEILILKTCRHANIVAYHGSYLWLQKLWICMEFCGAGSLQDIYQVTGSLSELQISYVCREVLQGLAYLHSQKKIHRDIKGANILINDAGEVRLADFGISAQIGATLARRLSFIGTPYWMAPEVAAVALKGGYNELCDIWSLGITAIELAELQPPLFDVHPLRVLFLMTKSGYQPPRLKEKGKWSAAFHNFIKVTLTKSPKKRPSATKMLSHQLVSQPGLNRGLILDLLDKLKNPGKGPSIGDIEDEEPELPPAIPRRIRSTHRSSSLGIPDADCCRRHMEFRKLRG

On to `Cc1cc(-c2cnc(N)c(Oc3cnn(C4CCN(C)CC4)c3)n2)cc(S(=O)(=O)NCCC#N)c1` [Example A10, 3-(5-amino-6-((1-(1-methylpiperidin-4-yl)-1H-pyrazol-4-yl)oxy)pyrazin-2-yl)-N-(2-cyanoethyl)-5-methylbenzenesulfonamide], for which the half-maximal inhibitory concentration (IC50) was determined as 44 nM in experiment [1] and 117 nM in experiment [2]. `Cc1cc(-c2cnc(N)c(Oc3cnn(C4CCN(C)CC4)c3)n2)cc(C)c1CNc1ncco1` [Example A67, N-(4-(5-amino-6-((1-(1-methylpiperidin-4-yl)-1H-pyrazol-4-yl)oxy)pyrazin-2-yl)-2,6-dimethylbenzyl)oxazol-2-amine]: the values for the IC50 in experiment [1] and in experiment [2] were 17 nM and 76 nM, respectively.

As to `CCC(C)(O)c1cc(C)cc(-c2cnc(N)c(Oc3cnn(C4CCN(C)CC4)c3)n2)c1` (stereo not drawn) [Example A70, 2-(3-(5-amino-6-((1-(1-methylpiperidin-4-yl)-1H-pyrazol-4-yl)oxy)pyrazin-2-yl)-5-methylphenyl)butan-2-ol], the IC50 in experiment [1] was found to be 6.7 nM; in experiment [2] it was 76 nM. Take `Cc1cc(-c2cnc(N)c(Oc3cnn(C4CCN(C)CC4)c3)n2)cc([C@@]2(O)CCOC2)c1N1CCOCC1` [Example A97A, (S)-3-(5-(5-amino-6-((1-(1-methylpiperidin-4-yl)-1H-pyrazol-4-yl)oxy)pyrazin-2-yl)-3-methyl-2-morpholinophenyl)tetrahydrofuran-3-ol]: the IC50 in experiment [1] was determined as 18 nM; in experiment [2], 78 nM. For `Cc1cc(-c2cnc(N)c(Oc3cnn(C4CCN(C)CC4)c3)n2)cc(C)c1C1=CCOCC1` [Example A75, 5-(4-(3,6-dihydro-2H-pyran-4-yl)-3,5-dimethylphenyl)-3-((1-(1-methylpiperidin-4-yl)-1H-pyrazol-4-yl)oxy)pyrazin-2-amine], the results for the 50% inhibitory concentration (IC50) in experiment [1] and in experiment [2] were 29 nM and 129 nM, respectively. In the same order, the values of `Cc1cc(-c2cnc(N)c(Oc3cnn(C4CCN(C)CC4)c3)n2)cc(C)c1N1CC2(COC2)C1` [Example A77, 5-(3,5-dimethyl-4-(2-oxa-6-azaspiro[3.3]heptan-6-yl)phenyl)-3-((1-(1-methylpiperidin-4-yl)-1H-pyrazol-4-yl)oxy)pyrazin-2-amine] are 38 nM and 91 nM. The like results for `CNS(=O)(=O)c1cc(-c2cnc(N)c(Oc3cnn(C4CCN(C)CC4)c3)n2)cc(N2CCOC[C@H]2C)c1` [Example A49, (R)-3-(5-amino-6-((1-(1-methylpiperidin-4-yl)-1H-pyrazol-4-yl)oxy)pyrazin-2-yl)-N-methyl-5-(3-methylmorpholino)benzenesulfonamide] were, in that order, 11 nM and 82 nM. In the same order, the values of `COc1ccc(S(=O)(=O)NCc2c(C)cc(-c3cnc(N)c(Oc4cnn(C5CCN(C)CC5)c4)n3)cc2C)cc1` [Example A39, N-(4-(5-amino-6-((1-(1-methylpiperidin-4-yl)-1H-pyrazol-4-yl)oxy)pyrazin-2-yl)-2,6-dimethylbenzyl)-4-methoxybenzenesulfonamide] are 35 nM and 176 nM. Turning to `Cc1cc(-c2cnc(N)c(Oc3cnn(C4CCN(C)CC4)c3)n2)cc(C)c1CNC1(C)COC1` [Example A60, 5-(3,5-dimethyl-4-(((3-methyloxetan-3-yl)amino)methyl)phenyl)-3-((1-(1-methylpiperidin-4-yl)-1H-pyrazol-4-yl)oxy)pyrazin-2-amine], the IC50 in experiment [1] worked out at 40 nM; in experiment [2], 91 nM. The like results for `CCN(CC)c1cc(-c2cnc(N)c(Oc3cnn(C4CCN(C)CC4)c3)n2)cc(CNC)n1` [Example B1, 5-(2-(diethylamino)-6-((methylamino)methyl)pyridin-4-yl)-3-((1-(1-methylpiperidin-4-yl)-1H-pyrazol-4-yl)oxy)pyrazin-2-amine] were, in that order, 26 nM and 181 nM. In the case of `CNS(=O)(=O)c1cc(-c2cnc(N)c(Oc3cnn(C4CCN(C)CC4)c3)n2)cc(C)c1C` [Example A8, 5-(5-amino-6-((1-(1-methylpiperidin-4-yl)-1H-pyrazol-4-yl)oxy)pyrazin-2-yl)-N,2,3-trimethylbenzemesulfonamide], the half-inhibitory concentration (IC50) in experiment [1] was determined as 8 nM; in experiment [2] it was 30 nM. The like results for `Cc1cc(-c2cnc(N)c(Oc3cnn(C4CCN(C)CC4)c3)n2)cc(C)c1C1COC(=O)N1` (stereo not drawn) [Example A29, 4-(4-(5-amino-6-((1-(1-methylpiperidin-4-yl)-1H-pyrazol-4-yl)oxy)pyrazin-2-yl)-2,6-dimethylphenyl)oxazolidin-2-one] were, in that order, 21 nM and 97 nM. Consider `CN1CCC(n2cc(Oc3nc(-c4cc(N5CCC[C@H]5CO)cc(C5(O)COC5)c4)cnc3N)cn2)CC1` [Example A85, (S)-3-(3-(5-amino-6-((1-(1-methylpiperidin-4-yl)-1H-pyrazol-4-yl)oxy)pyrazin-2-yl)-5-(2-(hydroxymethyl)pyrrolidin-1-yl)phenyl)oxetan-3-ol], for which the half-maximal inhibitory concentration (IC50) in experiment [1] turned out to be 3.7 nM; in experiment [2] it was 28 nM.

With `Cc1cc(-c2cnc(N)c(Oc3cnn(C4CCN(C)CC4)c3)n2)cc(C)c1CNS(=O)(=O)c1ccccc1` [Example A38, N-(4-(5-amino-6-((1-(1-methylpiperidin-4-yl)-1H-pyrazol-4-yl)oxy)pyrazin-2-yl)-2,6-dimethylbenzyl)benzenesulfonamide], the IC50 in experiment [1] worked out at 37 nM; in experiment [2], 125 nM. `Cc1cc(-c2cnc(N)c(Oc3cnn(C4CCN(C)CC4)c3)n2)cc([C@@H]2CCC(=O)N2)c1` [Example A61B, (S)-5-(3-(5-amino-6-((1-(1-methylpiperidin-4-yl)-1H-pyrazol-4-yl)oxy)pyrazin-2-yl)-5-methylphenyl)pyrrolidin-2-one]: the IC50 in experiment [1] amounted to 10 nM; in experiment [2] it was 44 nM. For `CC#Cc1c(C)cc(-c2cnc(N)c(Oc3cnn(C4CCN(C)CC4)c3)n2)cc1C1(O)COC1` [Example A81, 3-(5-(5-amino-6-((1-(1-methylpiperidin-4-yl)-1H-pyrazol-4-yl)oxy)pyrazin-2-yl)-3-methyl-2-(prop-1-yn-1-yl)phenyl)oxetan-3-ol], the 50% inhibitory concentration (IC50) was 37 nM in experiment [1] and 72 nM in experiment [2].

Turning to `CNS(=O)(=O)c1cc(C)cc(-c2cnc(N)c(Oc3cnn(C4CCN(C)CC4)c3)n2)c1` [Example A2, 3-(5-amino-6-((1-(1-methylpiperidin-4-yl)-1H-pyrazol-4-yl)oxy)pyrazin-2-yl)-N,5-dimethylbenzenesulfonamide], the IC50 in experiment [1] was determined as 14 nM; in experiment [2], 34 nM. As to `CN1CCC(n2cc(Oc3nc(-c4cc(N5CCCOCC5)cc(C5(O)CCOC5)c4)cnc3N)cn2)CC1` (stereo not drawn) [Example A98, 3-(3-(5-amino-6-((1-(1-methylpiperidin-4-yl)-1H-pyrazol-4-yl)oxy)pyrazin-2-yl)-5-(1,4-oxazepan-4-yl)phenyl)tetrahydrofuran-3-ol], the IC50 in experiment [1] amounted to 9.2 nM; in experiment [2], 73 nM. With `Cc1cc(-c2cnc(N)c(Oc3cnn(C4CCN(C)CC4)c3)n2)cc(C)c1C(=O)NCCN1CCCC1` [Example A4, 4-(5-amino-6-((1-(1-methylpiperidin-4-yl)-1H-pyrazol-4-yl)oxy)pyrazin-2-yl)-2,6-dimethyl-N-(2-(pyrrolidin-1-yl)ethyl)benzamide], the half-inhibitory concentration (IC50) in experiment [1] amounted to 25 nM; in experiment [2], 91 nM. The like results for `CNS(=O)(=O)c1cc(-c2cnc(N)c(Oc3cnn(C4CCN(C)CC4)c3)n2)cc(N2CCOCC2)c1` [Example A42, 3-(5-amino-6-((1-(1-methylpiperidin-4-yl)-1H-pyrazol-4-yl)oxy)pyrazin-2-yl)-N-methyl-5-morpholinobenzenesulfonamide] were, in that order, 19 nM and 82 nM.

Consider `Cc1cc(-c2cnc(N)c(Oc3cnn(C4CCN(C)CC4)c3)n2)cc(C)c1CNC(=O)NC1CCCC1` [Example A37, 1-(4-(5-amino-6-((1-(1-methylpiperidin-4-yl)-1H-pyrazol-4-yl)oxy)pyrazin-2-yl)-2,6-dimethylbenzyl)-3-cyclopentylurea], for which the IC50 in experiment [1] came out at 17 nM; in experiment [2], 98 nM. Consider `C[C@@H]1COCCN1c1cc(-c2cnc(N)c(Oc3cnn(C4CCN(C)CC4)c3)n2)cc(C2(O)CCCOC2)c1` (single isomer, unassigned) [Example A90A], for which the IC50 in experiment [1] is 82 nM.

`Cc1cc(-c2cnc(N)c(Oc3cnn(C4CCN(C)CC4)c3)n2)cc(S(=O)(=O)NCCN2CCCCC2)c1` [Example A9, 3-(5-amino-6-((1-(1-methylpiperidin-4-yl)-1H-pyrazol-4-yl)oxy)pyrazin-2-yl)-5-methyl-N-(2-(piperidin-1-yl)ethyl)benzenesulfonamide]: the IC50 was determined as 46 nM in experiment [1] and 99 nM in experiment [2]. In the same order, the values of `Cc1cc(-c2cnc(N)c(Oc3cnn(C4CCN(C)CC4)c3)n2)cc(C)c1CNS(=O)(=O)C1CCCC1` [Example A40, N-(4-(5-amino-6-((1-(1-methylpiperidin-4-yl)-1H-pyrazol-4-yl)oxy)pyrazin-2-yl)-2,6-dimethylbenzyl)cyclopentanesulfonamide] are 33 nM and 125 nM. As for `Cc1cc(-c2cnc(N)c(Oc3cnn(C4CCN(C)CC4)c3)n2)cc(C2(O)CCOCC2)c1` [Example A58, 4-(3-(5-amino-6-((1-(1-methylpiperidin-4-yl)-1H-pyrazol-4-yl)oxy)pyrazin-2-yl)-5-methylphenyl)tetrahydro-2H-pyran-4-ol], the half-inhibitory concentration (IC50) was determined as 29 nM in experiment [1] and 69 nM in experiment [2].

Turning to `Cc1cc(-c2cnc(N)c(Oc3cnn(C4CCN(C)CC4)c3)n2)cc([C@H]2CCC(=O)N2)c1` [Example A61A, (R)-5-(3-(5-amino-6-((1-(1-methylpiperidin-4-yl)-1H-pyrazol-4-yl)oxy)pyrazin-2-yl)-5-methylphenyl)pyrrolidin-2-one], the IC50 in experiment [1] was 253 nM. `CC1OCCC1(O)c1cc(-c2cnc(N)c(Oc3cnn(C4CCN(C)CC4)c3)n2)cc(N2CCOC[C@H]2C)c1` (single isomer, unassigned) [Example A95B]: the IC50 in experiment [1] is 4.5 nM.

What is called IC50 is the concentration that inhibits the measured activity by half.

The values are drawn from patent US20240317714A1, “3-[(1H-PYRAZOL-R-YL)OXY]PYRAZIN-2-AMINE COMPOUNDS AS HPK1 INHIBITOR AND USE THEREOF” (BeiGene, Ltd., priority 2020, published 2024).
